Measured values taken from patent publication US7759345B2, “Antitumoral derivatives of ET-743” (priority 2001, dated 2010).

Legend:
K-562 = experiment: Inhibition of cells growth by colorimetric assay (SRB), K-562; type: cell-based; settings: for GI50 / LC50 (50% cell killing): Homo sapiens, K562, 48 h; for GI50 / K-562 TGI: SRB assay, 48 hours exposure; for GI50: read-out: K-562 GI50; for LC50 (50% cell killing): read-out: K-562 LC50, SRB assay, 48 hours exposure
Outline: (§1)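 Compound in DMSO/EtOH/PBS vehicle was applied at 10 to 10^−8 μg/ml to attached cells (5×10^3/well, 18 h) for 48 h. Cells were then fixed with cold TCA and stained with 0.4% SRB in 1% acetic acid.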

A-549 = experiment: Inhibition of cells growth by colorimetric assay (SRB), A-549; type: cell-based; settings: for GI50 / LC50 (concentration for 50% cell killing): Homo sapiens, A549, 48 h; for GI50 / A-549 TGI: SRB assay, 48 hours exposure; for GI50: read-out: A-549 GI50; for LC50 (concentration for 50% cell killing): read-out: A-549 LC50, SRB assay, 48 hours exposure
Outline: as §1

SK-MEL-28 = experiment: Inhibition of cells growth by colorimetric assay (SRB), SK-MEL-28; type: cell-based; settings: for GI50 / CC50: Homo sapiens, SK-MEL-28, 48 h; for GI50 / MEL-28 TGI: SRB assay, 48 hours exposure; for GI50: read-out: MEL-28 GI50; for CC50: read-out: MEL-28 LC50, SRB assay, 48 hours exposure
Outline: as §1

HT-29 = experiment: Inhibition of cells growth by colorimetric assay (SRB), HT-29; type: cell-based; settings: for GI50 / LC50 (concentration for 50% cell killing): Homo sapiens, HT-29, 48 h; for GI50 / HT-29 TGI: SRB assay, 48 hours exposure; for GI50: read-out: HT-29 GI50; for LC50 (concentration for 50% cell killing): read-out: HT-29 LC50, SRB assay, 48 hours exposure
Outline: as §1

LoVo = experiment: Inhibition of cells growth by colorimetric assay (SRB), LoVo; type: cell-based; settings: for GI50 / LC50 (concentration for 50% cell killing): Homo sapiens, LoVo, 48 h; for GI50 / LOVO TGI: SRB assay, 48 hours exposure; for GI50: read-out: LOVO GI50; for LC50 (concentration for 50% cell killing): read-out: LOVO LC50, SRB assay, 48 hours exposure
Outline: as §1

LoVo-Dox = experiment: Inhibition of cells growth by colorimetric assay (SRB), LoVo-Dox; type: cell-based; settings: for GI50 / CC50: Homo sapiens, 48 h; for GI50 / LOVO-DOX TGI: SRB assay, 48 hours exposure; for GI50: read-out: LOVO-DOX GI50; for CC50: read-out: LOVO-DOX LC50, SRB assay, 48 hours exposure
Outline: as §1

DU-145 = experiment: Inhibition of cells growth by colorimetric assay (SRB), DU-145; type: cell-based; settings: for GI50 / CC50: Homo sapiens, DU-145, 48 h; for GI50 / DU-145 TGI: SRB assay, 48 hours exposure; for GI50: read-out: DU-145 GI50; for CC50: read-out: DU-145 LC50, SRB assay, 48 hours exposure
Outline: as §1

LNCaP = experiment: Inhibition of cells growth by colorimetric assay (SRB), LNCaP; type: cell-based; settings: for GI50 / CC50: Homo sapiens, LNCaP, 48 h; for GI50: read-out: LNCAP GI50, SRB assay, 48 hours exposure; for CC50: read-out: LNCAP LC50, SRB assay, 48 hours exposure; for LNCAP TGI: SRB assay, 48 hours exposure
Outline: as §1

SK-BR-3 = experiment: Inhibition of cells growth by colorimetric assay (SRB), SK-BR-3; type: cell-based; settings: for GI50 / CC50: Homo sapiens, SK-BR-3, 48 h; for GI50 / SK-BR3 TGI: SRB assay, 48 hours exposure; for GI50: read-out: SK-BR3 GI50; for CC50: read-out: SK-BR3 LC50, SRB assay, 48 hours exposure
Outline: as §1

IGROV-1 = experiment: Inhibition of cells growth by colorimetric assay (SRB), IGROV-1; type: cell-based; settings: for GI50 / CC50: Homo sapiens, IGROV-1, 48 h; for GI50 / IGROV TGI: SRB assay, 48 hours exposure; for GI50: read-out: IGROV GI50; for CC50: read-out: IGROV LC50, SRB assay, 48 hours exposure
Outline: as §1

IGROV-ET = experiment: Inhibition of cells growth by colorimetric assay (SRB), IGROV-ET; type: cell-based; settings: for GI50 / CC50: Homo sapiens, 48 h; for GI50 / IGROV-ET TGI: SRB assay, 48 hours exposure; for GI50: read-out: IGROV-ET GI50; for CC50: read-out: IGROV-ET LC50, SRB assay, 48 hours exposure
Outline: as §1

SK-OV-3 = experiment: Inhibition of cells growth by colorimetric assay (SRB), SK-OV-3; type: cell-based; settings: for GI50 / LC50: Homo sapiens, SK-OV-3, 48 h; for GI50 / SK-OV3 TGI: SRB assay, 48 hours exposure; for GI50: read-out: SK-OV3 GI50; for LC50: read-out: SK-OV3 LC50, SRB assay, 48 hours exposure
Outline: as §1

PANC-1 = experiment: Inhibition of cells growth by colorimetric assay (SRB), PANC-1; type: cell-based; settings: for GI50 / LC50 (concentration for 50% net cell kill): Homo sapiens, PANC-1, 48 h; for GI50 / PANC-1 TGI: SRB assay, 48 hours exposure; for GI50: read-out: PANC-1 GI50; for LC50 (concentration for 50% net cell kill): read-out: PANC-1 LC50, SRB assay, 48 hours exposure
Outline: as §1

HMEC1 = experiment: Inhibition of cells growth by colorimetric assay (SRB), HMEC1; type: cell-based; settings: for GI50 / LC50: Homo sapiens, HMEC-1, 48 h; for GI50 / HMEC-1 TGI: SRB assay, 48 hours exposure; for GI50: read-out: HMEC-1 GI50; for LC50: read-out: HMEC-1 LC50, SRB assay, 48 hours exposure
Outline: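 Human cancer and endothelial lines are seeded at 5×10^3 cells per well and, after 18 h, treated for 48 h with compound dissolved in DMSO/EtOH/PBS (0.5:0.5:99) at 10 to 10^−8 μg/ml. Cell mass is quantified by SRB staining (OD 490 nm), and growth inhibition, total growth inhibition and cell kill are calculated from triplicate wells.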

Source text for Heart: (§2) Toxicity was asssessed by the methods reported in Toxicology in Vitro, 15 (2001) 571-577, J. Luber Narod et al.: “Evaluation of the use of in vitro methodolodies as tools for screening new compounds for potential in vivo toxicity”.
Source text for Kidney: as §2
Source text for Liver: as §2
Source text for Myelo: as §2
Source text for Skeletal: as §2

## COc1cc2c(cc1O)CCN[C@]21CS[C@@H]2c3c(OC(=O)CCCCC4SCC5NC(=O)NC54)c(C)c4c(c3[C@H](COC1=O)N1C2[C@H]2c3c(cc(C)c(OC)c3O)C[C@@H]([C@@H]1O)N2C)OCO4 (stereo partly shown) [Compound 171]
K-562
  GI50: 0.243 nM
  LC50 (50% cell killing): 0.982 nM
  K-562 TGI: 4.88E-10
A-549
  GI50: 22.8 nM
  LC50 (concentration for 50% cell killing): 96 nM
  A-549 TGI: 4.68E-08
SK-MEL-28
  GI50: 5.65 nM
  CC50: 102 nM
  MEL-28 TGI: 2.33E-08
HT-29
  GI50: 3.91 nM
  LC50 (concentration for 50% cell killing): 10600 nM
  HT-29 TGI: 3.24E-08
LoVo
  GI50: 23.7 nM
  LC50 (concentration for 50% cell killing): 10600 nM
  LOVO TGI: 7.66E-08
LoVo-Dox
  GI50: 938 nM
  CC50: 10600 nM
  LOVO-DOX TGI: 1.23E-06
DU-145
  GI50: 5.05 nM
  CC50: 10600 nM
  DU-145 TGI: 2.96E-08
LNCaP
  GI50: 1.66 nM
  CC50: 5.94 nM
  LNCAP TGI: 3.14E-09
SK-BR-3
  GI50: 2.47 nM
  CC50: 37.5 nM
  SK-BR3 TGI: 6.54E-09
IGROV-1
  GI50: 1.93 nM
  CC50: 8.8 nM
  IGROV TGI: 4.12E-09
IGROV-ET
  GI50: 225 nM
  CC50: 10600 nM
  IGROV-ET TGI: 7.08E-07
SK-OV-3
  GI50: 6.89 nM
  LC50: 10600 nM
  SK-OV3 TGI: 9.73E-08
PANC-1
  GI50: 7.3 nM
  LC50 (concentration for 50% net cell kill): 1060 nM
  PANC-1 TGI: 4.63E-08
HMEC1
  GI50: 2.94 nM
  LC50: 10600 nM
  HMEC-1 TGI: 6.90E-09
Liver
  Toxicity Data Liver: 8.37E-08
Heart
  Toxicity Data Heart: 3.13E-08
Myelo
  Toxicity Data Myelo: 1.37E-07
Skeletal
  Toxicity Data Skeletal: 3.58E-08
Kidney
  Toxicity Data Kidney: 2.70E-08

## COc1cc2c(cc1O)CCN[C@]21CS[C@@H]2c3c(OC(=O)CCCCC4SCC5NC(=O)NC54)c(C)c4c(c3[C@H](COC1=O)N1C2[C@H]2c3c(cc(C)c(OC)c3OC(=O)CCCCC3SCC5NC(=O)NC53)C[C@@H]([C@@H]1O)N2C)OCO4 (stereo partly shown) [Compound 172]
K-562
  GI50: 6.03 nM
  LC50 (50% cell killing): 35.3 nM
  K-562 TGI: 9.98E-09
A-549
  GI50: 241 nM
  LC50 (concentration for 50% cell killing): 853 nM
  A-549 TGI: 4.59E-07
SK-MEL-28
  GI50: 1.31 nM
  CC50: 7.97 nM
  MEL-28 TGI: 3.22E-09
HT-29
  GI50: 38.8 nM
  LC50 (concentration for 50% cell killing): 8530 nM
  HT-29 TGI: 1.43E-07
LoVo
  GI50: 226 nM
  LC50 (concentration for 50% cell killing): 853 nM
  LOVO TGI: 4.61E-07
LoVo-Dox
  GI50: 2880 nM
  CC50: 8530 nM
  LOVO-DOX TGI: 7.23E-06
DU-145
  GI50: 37.9 nM
  CC50: 8530 nM
  DU-145 TGI: 8.31E-08
LNCaP
  GI50: 27.7 nM
  CC50: 66.8 nM
  LNCAP TGI: 4.31E-08
SK-BR-3
  GI50: 50.2 nM
  CC50: 785 nM
  SK-BR3 TGI: 2.00E-07
IGROV-1
  GI50: 14.2 nM
  CC50: 63.6 nM
  IGROV TGI: 3.01E-08
IGROV-ET
  GI50: 165 nM
  CC50: 853 nM
  IGROV-ET TGI: 4.18E-07
SK-OV-3
  GI50: 219 nM
  LC50: 853 nM
  SK-OV3 TGI: 5.09E-07
PANC-1
  GI50: 326 nM
  LC50 (concentration for 50% net cell kill): 8530 nM
  PANC-1 TGI: 8.34E-07
HMEC1
  GI50: 432 nM
  LC50: 8530 nM
  HMEC-1 TGI: 8.53E-06
Liver
  Toxicity Data Liver: 2.47E-07
Heart
  Toxicity Data Heart: 7.52E-07
Myelo
  Toxicity Data Myelo: 3.81E-07
Skeletal
  Toxicity Data Skeletal: 8.53E-07
Kidney
  Toxicity Data Kidney: 7.93E-07
